Data published in patent US8993631B2, “Method of treating contrast-induced nephropathy” (Novartis AG, priority 2010, dated 2015).
Structures can show the parent of a compound that is named as a salt. Where no end group is shown, it is not given here.

Tests used:
[1] = molecular target: recombinant human neutral endopeptidase (NEP, EC 3.4.24.11) (Homo sapiens (Human), UniProt P08473); assay: In vitro inhibition of recombinant human neutral endopeptidase (fluorescence lifetime assay); assay type: biochemical; details: 1 hour pre-incubation, effect determined after 1 hour at room temperature, pH 7.4
recombinant human neutral endopeptidase (NEP, EC 3.4.24.11), sequence (P08473 whole entry): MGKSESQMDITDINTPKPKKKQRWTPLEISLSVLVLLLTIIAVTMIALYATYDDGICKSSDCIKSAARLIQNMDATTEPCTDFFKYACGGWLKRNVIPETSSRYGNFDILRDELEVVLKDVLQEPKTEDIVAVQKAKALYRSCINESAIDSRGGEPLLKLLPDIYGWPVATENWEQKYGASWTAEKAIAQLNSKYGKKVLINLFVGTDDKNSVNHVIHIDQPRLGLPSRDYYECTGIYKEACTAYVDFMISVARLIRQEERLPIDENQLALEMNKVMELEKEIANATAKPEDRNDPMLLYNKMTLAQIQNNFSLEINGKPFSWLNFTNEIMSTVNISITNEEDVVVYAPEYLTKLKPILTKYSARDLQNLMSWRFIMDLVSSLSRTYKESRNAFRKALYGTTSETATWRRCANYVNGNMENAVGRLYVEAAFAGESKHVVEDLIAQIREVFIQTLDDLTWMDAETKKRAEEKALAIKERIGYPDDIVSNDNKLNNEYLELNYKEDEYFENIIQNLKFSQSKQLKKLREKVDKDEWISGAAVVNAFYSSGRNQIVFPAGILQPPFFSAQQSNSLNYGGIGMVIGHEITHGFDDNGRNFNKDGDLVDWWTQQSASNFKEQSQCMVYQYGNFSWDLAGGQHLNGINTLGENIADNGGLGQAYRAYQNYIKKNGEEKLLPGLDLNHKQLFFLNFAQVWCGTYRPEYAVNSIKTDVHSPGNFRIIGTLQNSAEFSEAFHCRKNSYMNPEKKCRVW
Excerpt: The activity of a compound for use in the method according to the present invention can be assessed by the following in vitro & in vivo methods and/or by the following in vitro & in vivo methods well-described in the art. See A fluorescence lifetime-based assay for protease inhibitor profiling on human kallikrein 7 Doering K, Meder G, Hinnenberger M, Woelcke J, Mayr L M, Hassiepen U Biomol Screen.
In particular, the in vitro inhibition of recombinant human neutral endopeptidase (NEP, EC 3.4.24.11) can be determined as follows: […]

[2] = system: adult male cannulated Sprague-Dawley rats; assay: Renal function assessment in rats: GFR by FITC-inulin clearance method; details: relative to vehicle-treated rats
Method: A fluorescein isothiocyanate (FITC)-inulin stock solution was prepared by weighing the FITC-inulin powder, adding it to saline (50 mg/ml), and heating it in boiling water until dissolved. The solution was filtered and dialyzed overnight to remove unbound FITC. The next day, the dialysate was again filtered to sterilize it.
Approximately 1-2 weeks before the study, femoral arterial and venous catheters were implanted in the rats under isoflurane anesthesia. The catheters were exteriorized through a spring tether/swivel system and the instrumented rats were housed in specialized cages.
On the experimental day, rats were administered a NEP inhibitor or its vehicle by oral gavage. Thirty min later, FITC-inulin (10 mg/kg i.v. bolus) was administered via the venous catheter. Blood samples were withdrawn from the arterial catheter at 3, 7, 10, 15, 30, 60, 90, and 120 min after the FITC-inulin injection for plasma FITC-inulin and compound concentrations.
Arterial pressure was continuously monitored throughout the experiment.
The stock solution of FITC-inulin was serially diluted to generate a standard curve. The dosing solution was also diluted and analyzed to determine the exact amount of FITC-inulin injected. […] Concentrations of FITC-inulin in the plasma and dosing solution were determined by linear regression from the standard curve. FITC-inulin AUC(O-infinity) was derived by WinNonlin for each rat's plasma concentration-time curves. GFR (FITC-inulin clearance) was calculated for each animal as the injected dose divided by the AUC.

[3] = system: patients with chronic renal insufficiency undergoing cardiac catheterization; details: 48 hour infusion at 0.042 μg/kg/min, at-risk patients undergoing cardiac catheterization; cited from earlier work

Row | Compound | IC50 [1] | % GFR increase ([2]; dose 1 mg/kg p.o.) | also measured
1 | C[C@H](N[C@@H](Cc1ccc(-c2cccc(Cl)c2)cc1)C(=O)Nc1cc(O)no1)C(=O)O [Example 32-4, (S)-2-[(S)-2-(3′-Chloro-biphenyl-4-yl)-1-(3-hydroxy-isoxazol-5-ylcarbamoyl)-ethylamino]-propionic acid] | 2.4 nM |  | 
2 | CCOC(=O)C[C@@H](Cc1ccc(-c2ccccc2)cc1)NC(=O)CN1CCC[C@H]1C(=O)OCc1ccccc1 [Example 3-11, (S)-benzyl 1-(2-((R)-1-(biphenyl-4-yl)-4-ethoxy-4-oxobutan-2-ylamino)-2-oxoethyl)pyrrolidine-2-carboxylate trifluoroacetic acid salt] | 18 nM |  | 
3 | CCc1ncc(C(=O)N[C@@H](CC(=O)O)Cc2ccc(-c3cc(Cl)ccc3F)cc2)o1 [Example 9-7] |  | 35% | 
4 | CCOC(=O)[C@H](C)N[C@@H](Cc1ccc(-c2cccc(Cl)c2)cc1)C(=O)Nc1nnn[nH]1 [Example 31, (S)-2-[(S)-2-(3′-chloro-biphenyl-4-yl)-1-(1H-tetrazol-5-ylcarbamoyl)-ethylamino]-propionic acid ethyl ester] |  |  | % GFR increase ([2]; dose 0.1 mg/kg p.o.): 27%
5 | CCOC(=O)[C@H](C)C[C@@H](Cc1ccc(-c2cccc(Cl)c2)cc1)NC(=O)CCC(=O)O [Example 35, (2R,4S)-4-(3-carboxy-propionylamino)-5-(3′-chloro-biphenyl-4-yl)-2-methyl-pentanoic acid ethyl ester] |  | 22% | 
6 | CCOC(=O)C[C@@H](Cc1ccc(-c2cccc(Cl)c2)cc1)NC(=O)CCC(=O)O [Example 1-2, (R)-4-(1-(3′-chlorobiphenyl-4-yl)-4-ethoxy-4-oxobutan-2-ylamino)-4-oxobutanoic acid] |  |  | % GFR increase ([2]; dose 0.1 mg/kg p.o.): 23%
7 | Human Endogenous atrial natriuretic peptides (SLRRSSCFGGRMDRIGAQSGLGCNSFRY; ends and bridges not checked; cysteine pairing not given here; UniProt P01160 124-151, looked up) [Human ANP, "Human Endogenous atrial natriuretic peptides (ANP) infusions have been available in Japan for use in acute decompensated heart failure"; infused at 0.042 μg/kg/min] |  |  | reduction of the incidence of contrast-induced nephropathy [3]: 70%
8 | CCOC(=O)[C@H](C)C[C@@H](Cc1ccc(-c2ccccc2)cc1)NC(=O)CCC(=O)O [Example 34, (2R,4S)-5-Biphenyl-4-yl-4-(3-carboxy-propionylamino)-2-methyl-pentanoic acid ethyl ester] |  |  | % GFR increase ([2]; dose 100 mg/kg p.o.): 37%
9 | CCCCOC(=O)CCC(=O)N[C@@H](CC(=O)O)Cc1ccc(-c2cccc(Cl)c2)cc1 [Example 3-12, (R)-3-(4-butoxy-4-oxobutanamido)-4-(3′-chlorobiphenyl-4-yl)butanoic acid] | 15 nM | 32% | 
